Results on ten molecules are retold here after patent US20090155395A1 (SAGITTARIUS LIFE SCIENCE CORP., priority 2007, published 2009).

Usually MIC stands for the least concentration at which growth counts as inhibited. What is called IC50 is the point on the concentration scale where inhibition reaches its midpoint.

Converted amounts (≈) assume the structure as drawn. Read-outs that look alike come from different tables or passages of the source.

The subject of test [1] is Propionibacterium acnes (ATCC 6919). Kind of test: Minimum inhibitory concentration (MIC), broth dilution method. The class given is cell-based. The protocol: Minimum inhibitory concentration (MIC) was determined by the broth dilution method (Edwards, J. R. et. al., Antimicrob Agents Chemother. 1989; 33(2):215-22).
10 ul aliquot (1% DMSO final concentration) of serial dilutions were added into 0.99 ml of Reinforced Clostridial Medium (Oxiod, England.) with 1-5×10^5 CFU/ml of Propionibacterium acnes (ATCC 6919). […] Vehicle-control and active reference agents were used as blank and positive controls, respectively.
On the technique in general: In broth dilution the organism is exposed to a series of concentrations in liquid medium.

The nature of test [2]: Free radical scavenger, SOD mimetic activity (xanthine-xanthine oxidase / NBT reduction). Format: biochemical. The settings on record: inhibition of NBT reduction, pH 10.5, 25° C., 20 minutes. The protocol: (§1) The method to measure SOD (SOD, EC.1.15.1.1) activity was based on the inhibition of nitroblue tetrazolium reduction with xanthine-xanthine oxidase used as a superoxide generator (Sun Y, et. al., Clin. Chem. 1988; 34: 497-500).
(§2) Conversion of xanthine to uric acid +O^−+NBT to formazan was then determined by measurement of absorbance at 595 nm and percent inhibition by superoxide dismutase mimetic or test compound was calculated.

Test [3] deals with xanthine-xanthine oxidase (superoxide generator). Kind of test: Superoxide dismutase (SOD) mimetic activity, inhibition of nitroblue tetrazolium reduction. The settings on record: 0.12 mM xanthine, 6 mU xanthine oxidase, 27 μM NBT, pH 10.5, 25° C., 20 minutes. Format: biochemical. The protocol:
as §1, §2

Test [4] has as its target T1, Steroid 5-α-reductase isolated from liver of Wistar rat (Rattus norvegicus, UniProt P24008).
T1 construct: isolated from liver of Wistar rat by conventional centrifugation; from tissue; host or cells: liver of Wistar rat
T1 sequence (P24008 1-259): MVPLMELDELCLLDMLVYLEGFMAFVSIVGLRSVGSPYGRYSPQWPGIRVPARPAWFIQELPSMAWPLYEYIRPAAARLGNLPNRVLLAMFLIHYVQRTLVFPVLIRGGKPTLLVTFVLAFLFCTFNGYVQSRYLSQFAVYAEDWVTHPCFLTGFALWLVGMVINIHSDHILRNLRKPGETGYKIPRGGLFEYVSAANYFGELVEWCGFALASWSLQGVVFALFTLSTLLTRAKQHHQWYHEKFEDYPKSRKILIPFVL
Kind of test: Steroid 5-α-reductase inhibition (testosterone EIA). Format: biochemical. The settings on record: rat liver enzyme, 1 μM testosterone, 30 minutes. From the text:
Steroid 5-α-reductase isolated from liver of Wistar rat by conventional centrifugation was used (Liang T, et. al., Endocrinology. 1985;117(2): 571-9).
The reaction was terminated by addition of 1 N HCl and neutrilized by 1 N NaOH. Testosterone was quantitated by using a Testosterone EIA Kit.

Test [5] concerns the target T2, Human recombinant Cyclooxygenase-2 expressed in Sf21 cells (Homo sapiens, UniProt P35354).
T2 construct: purchased Sigma C-0858; host or cells: Sf21 cells
T2 sequence (P35354 18-604): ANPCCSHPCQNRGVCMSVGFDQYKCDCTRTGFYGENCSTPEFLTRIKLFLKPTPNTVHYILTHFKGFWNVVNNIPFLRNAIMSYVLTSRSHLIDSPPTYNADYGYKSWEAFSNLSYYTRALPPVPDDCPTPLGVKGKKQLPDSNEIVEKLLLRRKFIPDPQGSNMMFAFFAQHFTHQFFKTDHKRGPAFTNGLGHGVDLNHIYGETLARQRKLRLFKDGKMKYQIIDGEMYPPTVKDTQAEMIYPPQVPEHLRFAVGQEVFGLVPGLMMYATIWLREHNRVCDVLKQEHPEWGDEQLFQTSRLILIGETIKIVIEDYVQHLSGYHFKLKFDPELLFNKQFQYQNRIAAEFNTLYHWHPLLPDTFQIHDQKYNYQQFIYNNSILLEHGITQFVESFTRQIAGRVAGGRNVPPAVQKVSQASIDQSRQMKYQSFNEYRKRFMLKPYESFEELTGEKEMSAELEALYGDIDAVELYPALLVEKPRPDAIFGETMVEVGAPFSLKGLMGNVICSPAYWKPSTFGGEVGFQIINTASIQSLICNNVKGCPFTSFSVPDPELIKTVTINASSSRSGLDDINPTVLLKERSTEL
Kind of test: COX II inhibition (PGE2 EIA). The class given is biochemical. Conditions: human recombinant enzyme, 0.3 μM arachidonic acid. The protocol: The reaction was initiated by addition of 0.3 μM arachidonic acid for 5 minutes and terminated by further addition of 1 N HCl. Following centrifugation, substrate conversion to PGE2 was measured by an Amersham EIA kit.

Setting [6] is: Cutibacterium acnes, ATCC6919, broth dilution, 37° C., 48 hours, anaerobic, read-out: MIC.

As to `CC1(C)S[C@@H]2[C@H](NC(=O)[C@H](N)c3ccccc3)C(=O)N2[C@H]1C(=O)O` [Ampicillin], the MIC in test [1] (setting [6]) is 0.1 µg/mL (≈ 0.286 µM).

Turning to `CN[C@H](CC(C)C)C(=O)N[C@H]1C(=O)N[C@@H](CC(N)=O)C(=O)N[C@H]2C(=O)N[C@H]3C(=O)N[C@H](C(=O)N[C@H](C(=O)O)c4cc(O)cc(O)c4-c4cc3ccc4O)[C@H](O)c3ccc(c(Cl)c3)Oc3cc2cc(c3O[C@@H]2O[C@H](CO)[C@@H](O)[C@H](O)[C@H]2O[C@H]2C[C@](C)(N)[C@H](O)[C@H](C)O2)Oc2ccc(cc2Cl)[C@H]1O` [Vancomycin], in test [1] (Cutibacterium acnes, ATCC6919, 48 h), the MIC was found to be 1 µg/mL (≈ 0.69 µM).

Gentamicin gave an MIC in test [1] (broth dilution, 37° C., 48 hours, anaerobic) of 30 µg/mL.

In the case of “Superoxide dismutase (SOD): standard reference agent used, Human SOD MW = 2 × 28.3 KDa”, in test [2], the “IC50, SOD mimetic activity” value came out at 0.475 µg/mL.

With `O=C(O[C@@H]1Cc2c(O)cc(O)cc2O[C@@H]1c1ccc(O)c(O)c1)c1cc(O)c(O)c(O)c1` [(−)-Epicatechin gallate], the “IC50, SOD mimetic activity” value in test [2] is 2.698 µg/mL (≈ 6.1 µM). Moreover, in test [3], the IC50 stood at 2.698 µg/mL (≈ 6.1 µM).

As to `CN(C)[C@@H]1C(O)=C(C(N)=O)C(=O)[C@@]2(O)C(O)=C3C(=O)c4c(O)cccc4[C@@](C)(O)[C@H]3C[C@@H]12` [Tetracycline], the MIC in test [1] (setting [6]) amounted to 1 µg/mL (≈ 2.25 µM).

Take `CCCCC/C=C\C/C=C\C/C=C\CCCCC(=O)O` [γ-Linolenic Acid]: the IC50 in test [4] was 14 µM.

On to `CC(C)(C)NC(=O)[C@H]1CC[C@H]2[C@@H]3CC[C@H]4NC(=O)C=C[C@]4(C)[C@H]3CC[C@]12C` [Finasteride], for which the IC50 in test [4] was 0.025 µM.

For the molecule `O=C(O)c1cccnc1Nc1cccc(C(F)(F)F)c1` [Niflumic acid], the IC50 in test [5] is 691 nM.

Take `CC1COc2c(N3CCN(C)CC3)c(F)cc3c(=O)c(C(=O)O)cn1c23` (centres unmarked) [Ofloxacin]: the MIC in test [1] (setting [6]) amounted to 1 µg/mL (≈ 2.77 µM).
